For one data set, the target named is CYP2C9 (Homo sapiens, UniProt P11712). Kind of data set: CYP2C9 inhibition (fluorescent substrate). The data set is classed as in vitro ADME. The following applies: CYP2C9, MFC substrate; read-out: Cyp IC50 2C9. The method, then:
(§1) CYP (Cytochrome P450) enzymes are the major drug metabolizing enzymes present in the liver. The inhibition of CYP enzyme activity (IC50) for each of CYP1A2, CYP2C19, CYP2C9, CYP2D6, CYP3A4(BFC) and CYP3A4(BQ) is determined for compounds, where inhibition of metabolism of a known substrate leads to a decrease in the fluorescence of the metabolized product. The fluorescence of the product is monitored as a function of compound concentration.
(§2) Compounds are dissolved in dimethyl sulfoxide to a concentration of 100 mM. These are diluted 1 μL into 82 μL of acetonitrile. […] These are then serially diluted 1:1 (160 μL to 160 μL co-factor mix) for a total of 10 points. A 10 μL aliquot of this final mixture is dispensed into 384 well assay plates and incubated for 10 minutes at 37° C. […] Assay plates are incubated at 37° C. […] The signal versus compound concentration is used to determine the IC50. The enzymes and substrates for this assay are obtained from BD Biosciences.

Data set [1] concerns A375 melanoma cells (B-Raf V600E). Kind of data set: A375 cell growth inhibition (ATPlite). The data set is classed as cell-based. The settings on record: Homo sapiens, A-375, 72 h; A375, 3 days incubation. The method, boiled down: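 Cells plated overnight, then exposed 3 days at 37° C to 8-point 1:3 compound dilutions topping at 10 μM final. Viability read as ATPlite luminescence, proportional to cell number; IC50 from luminescence versus concentration.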

A further data set deals with CYP2D6 (Homo sapiens, UniProt P10635). Kind of data set: CYP2D6 inhibition (fluorescent substrate). The settings on record: CYP2D6, AMMC substrate; read-out: Cyp IC50 2D6. It counts as in vitro ADME. As for the experimental part:
as §1, §2

In the next data set the target is CYP2C19 (Homo sapiens, UniProt P33261). Kind of data set: CYP2C19 inhibition (fluorescent substrate). The data set is classed as in vitro ADME. The following applies: CYP2C19, CEC substrate; read-out: Cyp IC50 2C19. As for the experimental part: as §1, §2
The target in a further data set is B-Raf V600E (Homo sapiens, UniProt P15056, V600E). The data set is described as follows: B-Raf V600E biochemical kinase inhibition (AlphaScreen, biotin-MEK1 substrate). The following applies: 100 μM ATP. A digest of the protocol: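 Raf kinases phosphorylating biotin-MEK1, reaction started with ATP at 100 μM final. Compounds tested at 8 points by serial dilution from a 0.1 mM DMSO stock.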
Background: Alpha assays give light when donor and acceptor beads are brought close together.

The structures appear in SMILES notation. Bounds are passed on as bounds.

Sequence of B-Raf V600E (P15056 whole entry V600E): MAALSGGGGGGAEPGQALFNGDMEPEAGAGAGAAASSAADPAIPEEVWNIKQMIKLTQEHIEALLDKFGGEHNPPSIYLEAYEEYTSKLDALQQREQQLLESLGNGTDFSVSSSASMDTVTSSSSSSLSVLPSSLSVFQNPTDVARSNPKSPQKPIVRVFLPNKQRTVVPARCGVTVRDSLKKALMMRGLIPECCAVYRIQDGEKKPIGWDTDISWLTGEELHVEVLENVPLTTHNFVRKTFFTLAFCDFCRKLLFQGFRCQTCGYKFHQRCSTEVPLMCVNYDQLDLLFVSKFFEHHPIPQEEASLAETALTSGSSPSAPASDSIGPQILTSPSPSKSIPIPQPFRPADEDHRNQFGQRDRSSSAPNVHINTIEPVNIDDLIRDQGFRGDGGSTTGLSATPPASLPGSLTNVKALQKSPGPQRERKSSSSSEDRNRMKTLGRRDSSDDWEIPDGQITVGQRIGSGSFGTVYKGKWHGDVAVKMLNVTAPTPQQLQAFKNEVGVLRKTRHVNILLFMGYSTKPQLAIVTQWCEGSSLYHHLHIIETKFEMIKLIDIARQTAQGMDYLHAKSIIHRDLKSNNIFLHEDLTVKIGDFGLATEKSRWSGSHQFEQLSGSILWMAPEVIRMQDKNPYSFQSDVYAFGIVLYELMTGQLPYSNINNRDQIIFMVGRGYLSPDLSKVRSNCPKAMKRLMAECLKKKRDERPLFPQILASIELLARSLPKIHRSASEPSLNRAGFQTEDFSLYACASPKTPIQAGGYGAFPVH
Sequence of CYP2C9 (P11712 whole entry): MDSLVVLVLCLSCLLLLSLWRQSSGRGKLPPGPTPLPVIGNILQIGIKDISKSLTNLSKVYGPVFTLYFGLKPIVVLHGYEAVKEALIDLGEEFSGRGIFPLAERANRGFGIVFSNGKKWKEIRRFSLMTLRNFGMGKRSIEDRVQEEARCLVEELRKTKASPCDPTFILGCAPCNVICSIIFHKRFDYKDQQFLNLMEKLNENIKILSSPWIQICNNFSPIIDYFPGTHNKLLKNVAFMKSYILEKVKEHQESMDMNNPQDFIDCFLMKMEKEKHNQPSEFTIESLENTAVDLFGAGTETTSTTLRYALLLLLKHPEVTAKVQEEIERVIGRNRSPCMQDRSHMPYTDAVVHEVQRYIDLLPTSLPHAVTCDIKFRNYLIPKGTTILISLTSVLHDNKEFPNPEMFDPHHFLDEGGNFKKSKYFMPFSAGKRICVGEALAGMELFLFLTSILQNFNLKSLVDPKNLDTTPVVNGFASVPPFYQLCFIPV
Sequence of CYP2D6 (P10635 whole entry): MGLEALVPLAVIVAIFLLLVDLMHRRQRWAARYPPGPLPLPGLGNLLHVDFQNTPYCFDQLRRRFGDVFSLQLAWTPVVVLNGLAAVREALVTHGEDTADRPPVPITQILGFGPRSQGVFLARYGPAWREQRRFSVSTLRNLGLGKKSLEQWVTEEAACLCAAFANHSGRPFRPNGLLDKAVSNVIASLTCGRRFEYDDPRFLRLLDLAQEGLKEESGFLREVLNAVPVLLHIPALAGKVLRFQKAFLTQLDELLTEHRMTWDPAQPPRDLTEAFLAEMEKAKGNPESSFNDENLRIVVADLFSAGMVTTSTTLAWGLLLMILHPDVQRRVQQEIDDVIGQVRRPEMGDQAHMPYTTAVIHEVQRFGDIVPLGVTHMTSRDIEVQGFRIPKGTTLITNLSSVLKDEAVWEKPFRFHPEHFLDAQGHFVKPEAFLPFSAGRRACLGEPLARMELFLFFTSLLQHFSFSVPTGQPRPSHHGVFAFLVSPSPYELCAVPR
Sequence of CYP2C19 (P33261 whole entry): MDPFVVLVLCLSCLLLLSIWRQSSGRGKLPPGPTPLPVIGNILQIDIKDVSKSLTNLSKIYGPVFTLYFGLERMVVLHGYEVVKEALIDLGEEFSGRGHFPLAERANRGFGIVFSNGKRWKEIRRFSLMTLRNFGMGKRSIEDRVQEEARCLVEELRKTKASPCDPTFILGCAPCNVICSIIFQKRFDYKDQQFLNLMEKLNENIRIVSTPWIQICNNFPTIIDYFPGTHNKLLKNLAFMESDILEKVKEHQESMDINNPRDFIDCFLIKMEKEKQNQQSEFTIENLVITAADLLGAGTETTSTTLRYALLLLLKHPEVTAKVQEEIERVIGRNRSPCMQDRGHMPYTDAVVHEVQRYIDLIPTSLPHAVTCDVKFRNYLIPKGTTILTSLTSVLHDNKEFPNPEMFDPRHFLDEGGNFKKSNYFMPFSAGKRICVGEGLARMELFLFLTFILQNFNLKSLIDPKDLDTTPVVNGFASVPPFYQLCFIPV

Usually IC50 stands for the concentration that inhibits the measured activity by half. For `COc1ccnc2[nH]cc(C(=O)c3c(F)ccc(NS(=O)(=O)c4c(F)cccc4F)c3F)c12` [P-2031, N-[2,4-Difluoro-3-(4-methoxy-1H-pyrrolo[2,3-b]pyridine-3-carbonyl)-phenyl]-2,6-difluoro-benzenesulfonamide], the IC50 at CYP2C9 was greater than 10 µM; in data set [1], less than 5 µM; at CYP2D6 it was greater than 10 µM; at CYP2C19 it was greater than 10 µM; at B-Raf V600E, less than 0.1 µM.
For the compound `O=C(c1c(F)ccc(NS(=O)(=O)c2c(F)cccc2F)c1F)c1c[nH]c2nccc(Cl)c12` [P-2033, N-[3-(4-Chloro-1H-pyrrolo[2,3-b]pyridine-3-carbonyl)-2,4-difluoro-phenyl]-2,6-difluoro-benzenesulfonamide], the IC50 at CYP2C9 was greater than 10 µM; in data set [1], less than 5 µM; on CYP2D6, greater than 10 µM; at CYP2C19 it was greater than 10 µM; on B-Raf V600E, less than 0.01 µM.
`N#Cc1ccnc2[nH]cc(C(=O)c3c(F)ccc(NS(=O)(=O)c4cc(F)ccc4F)c3F)c12` [P-2036, N-[3-(4-Cyano-1H-pyrrolo[2,3-b]pyridine-3-carbonyl)-2,4-difluoro-phenyl]-2,5-difluoro-benzenesulfonamide]: the IC50 at CYP2C9 is greater than 10 µM; in data set [1], less than 5 µM; on CYP2D6, greater than 10 µM; at CYP2C19, greater than 10 µM; at B-Raf V600E, less than 0.01 µM.
For `N#Cc1ccnc2[nH]cc(C(=O)c3c(F)ccc(NS(=O)(=O)c4c(F)cccc4F)c3F)c12` [P-2037, N-[3-(4-Cyano-1H-pyrrolo[2,3-b]pyridine-3-carbonyl)-2,4-difluoro-phenyl]-2,6-difluoro-benzenesulfonamide], the IC50 on CYP2C9 is greater than 10 µM; in data set [1] it was less than 5 µM; at CYP2D6, greater than 10 µM; on CYP2C19, greater than 10 µM; on B-Raf V600E, less than 0.01 µM.
Take `N#Cc1ccnc2[nH]cc(C(=O)c3c(F)ccc(NS(=O)(=O)c4cccc(F)c4)c3F)c12` [P-2039, N-[3-(4-Cyano-1H-pyrrolo[2,3-b]pyridine-3-carbonyl)-2,4-difluoro-phenyl]-3-fluoro-benzenesulfonamide]: the IC50 on CYP2C9 was greater than 10 µM; in data set [1] it was less than 5 µM; on CYP2D6, greater than 10 µM; at CYP2C19 it was greater than 10 µM; against B-Raf V600E, less than 0.01 µM.
Turning to `COc1ncc(-c2cnc3[nH]cc(C(=O)c4c(F)ccc(NS(=O)(=O)c5ccccc5F)c4F)c3c2)cn1` [P-2041, N-{2,4-Difluoro-3-[5-(2-methoxy-pyrimidin-5-yl)-1H-pyrrolo[2,3-b]pyridine-3-carbonyl]-phenyl}-2-fluoro-benzenesulfonamide], the IC50 is greater than 10 µM at CYP2C9; less than 1 µM in data set [1]; greater than 10 µM on CYP2D6; greater than 10 µM on CYP2C19; less than 0.01 µM at B-Raf V600E.
As for `COc1ncc(-c2cnc3[nH]cc(C(=O)c4c(F)ccc(NS(=O)(=O)c5cc(F)ccc5F)c4F)c3c2)cn1` [P-2042, N-{2,4-Difluoro-3-[5-(2-methoxy-pyrimidin-5-yl)-1H-pyrrolo[2,3-b]pyridine-3-carbonyl]-phenyl}-2,5-difluoro-benzenesulfonamide], the IC50 on CYP2C9 was 5 to 10 µM; in data set [1] it was less than 1 µM; at CYP2D6, greater than 10 µM; on CYP2C19, greater than 10 µM; on B-Raf V600E, less than 0.01 µM.
In the case of `COc1ncc(-c2cnc3[nH]cc(C(=O)c4c(F)ccc(NS(=O)(=O)c5c(F)cccc5F)c4F)c3c2)cn1` [P-2043, N-{2,4-Difluoro-3-[5-(2-methoxy-pyrimidin-5-yl)-1H-pyrrolo[2,3-b]pyridine-3-carbonyl]-phenyl}-2,6-difluoro-benzenesulfonamide], the IC50 was greater than 10 µM at CYP2C9; less than 5 µM in data set [1]; 5 to 10 µM at CYP2D6; greater than 10 µM on CYP2C19; less than 0.01 µM on B-Raf V600E.
As to `COc1ncc(-c2cnc3[nH]cc(C(=O)c4c(F)ccc(NS(=O)(=O)c5cccc(F)c5)c4F)c3c2)cn1` [P-2045, N-{2,4-Difluoro-3-[5-(2-methoxy-pyrimidin-5-yl)-1H-pyrrolo[2,3-b]pyridine-3-carbonyl]-phenyl}-3-fluoro-benzenesulfonamide], the IC50 at CYP2C9 was greater than 10 µM; in data set [1] it was less than 5 µM; on CYP2D6, greater than 10 µM; on CYP2C19 it was greater than 10 µM; at B-Raf V600E it was less than 0.1 µM.
As for `N#Cc1cnc2[nH]cc(C(=O)c3c(F)ccc(NS(=O)(=O)c4ccccc4)c3F)c2c1` [P-2046, N-[3-(5-Cyano-1H-pyrrolo[2,3-b]pyridine-3-carbonyl)-2,4-difluoro-phenyl]-benzenesulfonamide], the IC50 at CYP2C9 was less than 5 µM; in data set [1] it was less than 1 µM; at CYP2D6 it was greater than 10 µM; at CYP2C19, less than 5 µM; on B-Raf V600E, less than 0.01 µM.
Regarding `N#Cc1cnc2[nH]cc(C(=O)c3cccc(NS(=O)(=O)c4ccccc4F)c3F)c2c1` [P-2051, N-[3-(5-Cyano-1H-pyrrolo[2,3-b]pyridine-3-carbonyl)-2-fluoro-phenyl]-2-fluoro-benzenesulfonamide], the 50% inhibitory concentration (IC50) at CYP2C9 was 5 to 10 µM; in data set [1], less than 1 µM; on CYP2D6 it was greater than 10 µM; on CYP2C19, greater than 10 µM; on B-Raf V600E, less than 0.01 µM.
On to `N#Cc1cnc2[nH]cc(C(=O)c3cccc(NS(=O)(=O)c4cc(F)ccc4F)c3F)c2c1` [P-2052, N-[3-(5-Cyano-1H-pyrrolo[2,3-b]pyridine-3-carbonyl)-2-fluoro-phenyl]-2,5-difluoro-benzenesulfonamide], for which the IC50 on CYP2C9 was less than 5 µM; in data set [1], less than 1 µM; on CYP2D6, greater than 10 µM; on CYP2C19, greater than 10 µM; against B-Raf V600E it was less than 0.01 µM.
Turning to `N#Cc1cnc2[nH]cc(C(=O)c3cccc(NS(=O)(=O)c4cccc(F)c4)c3F)c2c1` [P-2053, N-[3-(5-Cyano-1H-pyrrolo[2,3-b]pyridine-3-carbonyl)-2-fluoro-phenyl]-3-fluoro-benzenesulfonamide], the IC50 is 5 to 10 µM at CYP2C9; less than 5 µM in data set [1]; greater than 10 µM on CYP2D6; greater than 10 µM on CYP2C19; less than 0.01 µM at B-Raf V600E.
With `N#Cc1cnc2[nH]cc(C(=O)c3cccc(NS(=O)(=O)c4c(F)cccc4F)c3F)c2c1` [P-2054, N-[3-(5-Cyano-1H-pyrrolo[2,3-b]pyridine-3-carbonyl)-2-fluoro-phenyl]-2,6-difluoro-benzenesulfonamide], the IC50 at CYP2C9 was greater than 10 µM; in data set [1], less than 5 µM; at CYP2D6 it was greater than 10 µM; on CYP2C19, greater than 10 µM; against B-Raf V600E, less than 0.01 µM.
Regarding `Cc1cnc2[nH]cc(C(=O)c3c(F)ccc(NS(=O)(=O)c4cccnc4)c3F)c2c1` [P-2069, Pyridine-3-sulfonic acid [2,4-difluoro-3-(5-methyl-1H-pyrrolo[2,3-b]pyridine-3-carbonyl)-phenyl]-amide], the IC50 at CYP2C9 is less than 5 µM; in data set [1] it was less than 5 µM; at CYP2D6, greater than 10 µM; at CYP2C19, greater than 10 µM; at B-Raf V600E it was less than 0.01 µM.
As for `N#Cc1cnc2[nH]cc(C(=O)c3c(F)ccc(NS(=O)(=O)c4cccnc4)c3F)c2c1` [P-2072, Pyridine-3-sulfonic acid [3-(5-cyano-1H-pyrrolo[2,3-b]pyridine-3-carbonyl)-2,4-difluoro-phenyl]-amide], the IC50 was greater than 10 µM on CYP2C9; less than 5 µM in data set [1]; greater than 10 µM on CYP2D6; greater than 10 µM at CYP2C19; less than 0.01 µM at B-Raf V600E.
